Structures can show the parent of a compound that is named as a salt.
What was measured:
[1] = system: ADP or collagen-induced platelet aggregation; conditions: at much lower concentrations; cited from earlier work
[2] = system: biomechanical platelet aggregation; test: Microfluidic stenosis assay (thrombus size, single fluorescence imaging); assay type: cell-based, human; conditions: for inhibition to the biomechanical thrombogenesis: separately and combined at twice or 20 times of human plasmatic concentrations; for thrombus formation: replacing heparin for anticoagulation
Description: Microfluidic devices with single-hump stenosis microchannels can be coated with VWF monomer solution. Heparin added whole blood is incubated with DiOC6 (3), or with a set of predetermined sensors. As used herein, a sensor is a compound or protein (e.g., antibody) that specifically binds a selected molecule, peptide, or protein present in a thrombus, the sensor can optionally include a detectable tag. A detectable tag can include but is not limited to a fluorescent tag. In certain aspects a first sensor set (Sensor Set 1) can include one or more of SZ22-FITC, Fg-Alexa Fluor® 405, 2.2.9-Alexa Fluor® 555 and AK4-Alexa Fluor® 647. In certain aspects a second sensor set (Sensor Set 2) can include SZ22-FITC, Annexin V-Pacific Blue, MBC 370.2-Alexa Fluor® 555 and PAC-1-Alexa Fluor® 647. A thrombogenic sample, e.g., blood, can be introduced via a reservoir at a microchannel inlet and perfused through the microchannel at a predetermined flow rate. In certain aspects the sample is moved through the microchannel using a pump withdraw mode via a syringe or similar apparatus connected to a microchannel outlet. The microchannel at the site of stenosis can be recorded in real time with multi-fluorescence imaging using appropriate equipment. In certain aspects the multi-fluorescence imaging is performed with a LED5 fluorescence light source and a multi-pass filter (excitation-emission: 391/32-435/30, 479/33-519/25, 554/24-594/32 and 638/31-695/58 nm). Autofluorescence of platelets can be detected in the 391/32-435/30 nm channel (Lohmann and Lohmann, Biochemical and biophysical research communications 152, 1410-1415, 1988), the signal intensity of which can be subtracted when calculating signals from other sensors.
Thrombus profiling assay: development and validation. Each microfluidic chip is composed of 10 rectangular (width×height: 200 μm×50 μm) channels with respective inlets and outlets for tubing connection (FIG. 1A, 1B). A pump drives a syringe to perfuse heparinized blood (0.5 mL) through the channel pre-coated with VWF. An 80% stenosis site stimulates biomechanical thrombogenesis (FIG. 1C). A perfusion rate of 18 μL min^−1 was selected, which creates a wall shear stress (WSS) of 857 dyn cm^−2 at the stenosis site according to fluid dynamics simulation (FIG. 1D). The same stenosis site WSS is achieved by an inlet wall shear rate of 1485 s-1 in a circular vessel with the same cross-sectional area, mimicking human arterioles (Yakusheva et al. Blood advances 6, 4834-46), human arteries during systole, and mouse arteries (Panteleev et al., Journal of thrombosis and haemostasis JTH 19, 588-95). The calculated Reynolds numbers in channels of different shapes are also within the same scale. […]

[3] = phase III trials; cited from earlier work

| Compound | inhibition of ADP or collagen-induced platelet aggregation [1] | inhibition to the biomechanical thrombogenesis [2] | thrombus formation [2] | patient mortality vs placebo [3] |
| --- | --- | --- | --- | --- |
| CC(=O)Oc1ccccc1C(=O)O [aspirin] | significantly inhibit | negligible inhibition |  |  |
| COC(=O)[C@H](c1ccccc1Cl)N1CCc2sccc2C1 [clopidogrel] | significantly inhibit | negligible inhibition |  |  |
| O=C(O)CN(CCN(CC(=O)O)CC(=O)O)CC(=O)O [EDTA, ethylenediaminetetraacetic acid] |  |  | attenuated |  |
| O=C(O)CC(O)(CC(=O)O)C(=O)O [citrate, sodium citrate] |  |  | attenuated |  |
| CCOC(=O)CCNC(=O)N[C@H]1CCN(c2ccc(C(=N)N)cc2)C1=O [orbofiban] |  |  |  | significantly increased |

Source: patent US20250189537A1, “MULTI-FLUORESCENCE MICROFLUIDIC PLATFORM FOR EVALUATING RISKS OF SHEAR-DRIVEN ARTERIAL THROMBOSIS AND FAST ANTITHROMBOTIC DRUG SCREENING” (Board of Regents, The University of Texas System, priority 2023, published 2025)
